TGI data for 13 compounds are collected here from PubChem BioAssay (NCI).

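The compound was tested at five concentrations on cells cultured in 96-well plates, with a 48-hour exposure period. The concentration for full growth arrest is given as TGI.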

Some test systems named below: BT-549 breast; COLO 205 colon; HCC-2998 colon; HS 578T breast; MCF7 breast; NCI-H23 lung; PC-3 prostate; SF-539 CNS; SK-OV-3 ovarian; TK-10 renal.
What all share (test): DTP human tumour cell line panel, 48 h

The term TGI denotes the concentration giving total growth inhibition. High values mean lower sensitivity of the cells, low ones greater sensitivity of the cells. On to `CN1C2CCC1C(CO)C(=O)C2` (centres undefined), for which the TGI is above 100 µM in the assay on BT-549 breast; 32.8 µM in the assay on COLO 205 colon; above 100 µM in the assay with HCC-2998 colon; above 100 µM with HS 578T breast; 56.5 µM with MCF7 breast; above 100 µM with NCI-H23 lung. For the same compound, the TGI was above 100 µM in the assay with PC-3 prostate, 52.9 µM in the assay with SF-539 CNS, above 100 µM in the assay on SK-OV-3 ovarian and 59.3 µM in the assay on TK-10 renal.

Regarding `Brc1ccc(/C(N=N/C(=N\Sc2ccccc2)c2ccc(Br)cc2)=N/Sc2ccccc2)cc1`, the TGI in the assay on BT-549 breast, in the assay on COLO 205 colon, in the assay on HCC-2998 colon, with HS 578T breast, in the assay on MCF7 breast and in the assay on NCI-H23 lung was above 100 µM in each case. The TGI in the assay with PC-3 prostate, in the assay with SF-539 CNS, in the assay with SK-OV-3 ovarian and in the assay on TK-10 renal was above 100 µM in each case.

For `O=C(O[C@@H](/C=C/c1ccccc1)P1(=O)N(Cc2ccccc2)[C@@H]2CCCC[C@H]2N1Cc1ccccc1)c1ccccc1`, the TGI in the assay with BT-549 breast was above 100 µM; in the assay with COLO 205 colon, 4.55 µM; in the assay on HCC-2998 colon, above 100 µM; in the assay with HS 578T breast, above 100 µM; with MCF7 breast, above 100 µM; with NCI-H23 lung, 9.22 µM. Besides, the TGI with PC-3 prostate, with SF-539 CNS, with SK-OV-3 ovarian and in the assay on TK-10 renal was above 100 µM each time.

As for `Cn1c2ccccc2c2c3c(=O)[nH][nH]c(=O)c3c3c4ccccc4n(C)c3c21`, the TGI with BT-549 breast, in the assay with COLO 205 colon, in the assay with HCC-2998 colon, in the assay with HS 578T breast, in the assay with MCF7 breast and with NCI-H23 lung was above 100 µM throughout. Moreover, the TGI in the assay on PC-3 prostate, in the assay on SF-539 CNS, in the assay on SK-OV-3 ovarian and in the assay with TK-10 renal was above 100 µM in each case.

As to `COc1ccc2c(c1)-c1nc(=S)n(CCN(C)C)c3ccc([N+](=O)[O-])c(c13)N2`, the TGI in the assay with BT-549 breast came to 24 µM; in the assay with COLO 205 colon, 5.97 µM; with HCC-2998 colon, 2.15 µM; in the assay on HS 578T breast, 7.69 µM; in the assay with MCF7 breast, 3.43 µM; in the assay with NCI-H23 lung, 17.9 µM. Further, the total growth inhibition concentration (TGI) in the assay on PC-3 prostate amounted to 4.36 µM; in the assay on SF-539 CNS it was 2.5 µM; with SK-OV-3 ovarian, 18 µM; in the assay on TK-10 renal it was 16.5 µM.

As for `CC(C)(C)[Si](C)(C)OC1CCOC1(O)c1ccccn1` (centres undefined), the TGI with BT-549 breast, with COLO 205 colon, in the assay on HCC-2998 colon, with HS 578T breast, in the assay with MCF7 breast and in the assay on NCI-H23 lung was above 100 µM in each case. The TGI in the assay with PC-3 prostate, with SF-539 CNS, in the assay on SK-OV-3 ovarian and with TK-10 renal was above 100 µM each time.

Regarding `O=C1CCC(CCc2nc3ccccc3[nH]2)(c2ccccc2)C(=O)N1` (centres undefined), the TGI in the assay on BT-549 breast, with COLO 205 colon, in the assay on HCC-2998 colon, with HS 578T breast, with MCF7 breast and with NCI-H23 lung was above 100 µM each time. Also, the TGI with PC-3 prostate, in the assay with SF-539 CNS, in the assay with SK-OV-3 ovarian and in the assay with TK-10 renal was above 100 µM in each case.

As for `CC(C)(C)C#CI1OC(=O)c2ccccc21`, the TGI in the assay on BT-549 breast is 11.7 µM; in the assay with COLO 205 colon, 4.65 µM; with HCC-2998 colon, 23.6 µM; in the assay on HS 578T breast it was above 92.3 µM; with MCF7 breast, 15.4 µM; in the assay with NCI-H23 lung, 15.3 µM. Also, the concentration for total growth inhibition (TGI) in the assay with PC-3 prostate was 19.5 µM; in the assay with SF-539 CNS it was 7.13 µM; in the assay on SK-OV-3 ovarian it was 25.1 µM; in the assay with TK-10 renal, 15.8 µM.

As to `O=c1cccc2n1CC1CNCC2C1` (centres undefined), the TGI in the assay on BT-549 breast, with COLO 205 colon, in the assay on HCC-2998 colon, in the assay on HS 578T breast, with MCF7 breast and in the assay with NCI-H23 lung was above 100 µM in each case. The TGI in the assay on PC-3 prostate, in the assay with SF-539 CNS, with SK-OV-3 ovarian and with TK-10 renal was above 100 µM throughout.

Regarding `Brc1ccc2[nH]cc(-c3csc(-c4c[nH]c5ccc(Br)cc45)n3)c2c1`, the TGI was 18 µM in the assay with BT-549 breast; 3.42 µM in the assay on COLO 205 colon; 3.26 µM in the assay on HCC-2998 colon; above 20.8 µM in the assay on HS 578T breast; 12.9 µM in the assay with MCF7 breast; 6.34 µM in the assay with NCI-H23 lung. Also, the TGI came to 4.44 µM with PC-3 prostate, 2.9 µM in the assay on SF-539 CNS, 8.09 µM with SK-OV-3 ovarian and 8.19 µM with TK-10 renal.

On to `COC(=O)Cc1c2n(c3ccccc13)C(=O)N1c3ccccc3C(CC(=O)OC)C21` (centres undefined), for which the TGI was 93.9 µM in the assay on BT-549 breast; above 100 µM in the assay on COLO 205 colon; above 100 µM in the assay on HCC-2998 colon; above 100 µM with HS 578T breast; above 100 µM in the assay with MCF7 breast; 64.6 µM in the assay on NCI-H23 lung. For the same compound, the TGI in the assay with PC-3 prostate was above 100 µM; with SF-539 CNS, 49.4 µM; in the assay on SK-OV-3 ovarian, above 100 µM; in the assay with TK-10 renal it was 47.7 µM.

For `Fc1ccc(OCc2ccc3nc(-c4ccccc4)c(Cl)nc3c2)cc1`, the TGI in the assay on BT-549 breast was 85.8 µM; in the assay with COLO 205 colon, above 100 µM; in the assay with HCC-2998 colon, above 100 µM; in the assay with HS 578T breast it was 67.7 µM; with MCF7 breast, above 100 µM; in the assay with NCI-H23 lung it was above 100 µM. Besides, the total growth inhibition concentration (TGI) was above 100 µM with PC-3 prostate, 51.8 µM in the assay on SF-539 CNS and 90.1 µM in the assay on TK-10 renal.

On to `OC(CCN1CCN(CCOC(c2ccc(F)cc2)c2ccc(F)cc2)CC1)c1ccc(Br)cc1` (centres undefined), for which the concentration for total growth inhibition (TGI) with BT-549 breast came to 12.5 µM; in the assay with COLO 205 colon, 3.84 µM; in the assay with HCC-2998 colon it was 3.53 µM; in the assay on HS 578T breast, 23.4 µM; in the assay on MCF7 breast it was 9.85 µM; in the assay with NCI-H23 lung it was 18.9 µM. In addition, the TGI turned out to be 17.8 µM with PC-3 prostate, 5.15 µM in the assay on SF-539 CNS, 19.8 µM in the assay on SK-OV-3 ovarian and 20.9 µM in the assay on TK-10 renal.
